# Structures can show the parent of a compound that is named as a salt.
# Legend:
# Format in all cases: physicochemical
# [1] = Solubility in the crystallization/isolation solvent systems; conditions: all of the solvent systems tested; isolation temperatures about 5° C. to about 22° C.
# Method: Suitable solvents include, but are not limited to, methanol, ethanol, propan-1-ol, propan-2-ol, butan-2-ol, tetrahydrofuran, acetone, and the like. Suitable temperatures for salt formation typically range between about 50° C. to about 75° C. depending on the solvent. One preferred temperature range for salt formation is from the temperature at which the (3-cyano-1H-indol-7-yl)-[4-(4-fluorophenethyl)piperazin-1-yl]methanone is soluble up to the reflux temperature of the solvent. […] However, this may result in a slurry to slurry conversion of (3-cyano-1H-indol-7-yl)-[4-(4-fluorophenethyl)piperazin-1-yl]methanone to the salt.
# Isolation temperatures typically range between about 5° C. and about 22° C.
# [2] = Solid-state (polymorphic/crystal form) stability
# Description: It is disadvantageous for a formulation to comprise a plurality of crystal forms of an active ingredient in that they may have different bioavailabilities and/or stability. Even slight variations in production conditions may compromise the reproducibility of the crystal form and therefore the performance of the formulated product. In addition, poorly crystalline materials are typically less desirable than highly crystalline materials because they are generally more difficult to handle during formulation processes.
# The Anhydrate is not stable under the conditions necessary for obtaining an SSNMR spectrum.
# [3] = Water retained in the crystal lattice in equilibrium with relative humidity; conditions: in equilibrium with a relative humidity of about 5% to about 95%
# Description: Two new crystalline forms are characterized by, inter alia, x-ray powder diffractometry, or alternatively, solid state nuclear magnetic resonance spectroscopy. One preferred embodiment of the present invention provides for a crystalline (3-cyano-1H-indol-7-yl)-[4-(4-fluorophenethyl)piperazin-1-yl]methanone phosphate hydrate Form I (Form I). Form I is characterized as a non-stoichiometric hydrate in that it retains water about 1.2% by weight of compound (up to approximately ⅓ mole of water per mole of compound) within the crystalline lattice when in equilibrium with a relative humidity of about 5% to about 95%.
compound,measurement,setting,value
"N#Cc1c[nH]c2c(C(=O)N3CCN(CCc4ccc(F)cc4)CC3)cccc12.O=P(O)(O)O [The salt, (3-Cyano-1H-indol-7-yl)-[4-(4-fluorophenethyl)piperazin-1-yl]methanone phosphate]",solubility in solvent systems tested,[1],low solubility
"N#Cc1c[nH]c2c(C(=O)N3CCN(CCc4ccc(F)cc4)CC3)cccc12 [hydrochloride salt, (3-cyano-1H-indol-7-yl)-[4-(4-fluorophenethyl)piperazin-1-yl]-methanone, reference compound]",solid form stability upon compression,[2]; upon compression during the manufacturing process,"converts from a single polymorphic form into a second, poorly crystalline, metastable polymorphic form"
"N#Cc1c[nH]c2c(C(=O)N3CCN(CCc4ccc(F)cc4)CC3)cccc12.O=P(O)(O)O [Anhydrate, (3-cyano-1H-indol-7-yl)-[4-(4-fluorophenethyl)piperazin-1-yl]methanone phosphate anhydrate]",crystal form stability under anhydrous conditions,[2]; anhydrous conditions,stable
same,crystal form stability under SSNMR conditions,[2]; conditions necessary for obtaining an SSNMR spectrum,not stable
same,crystal form conversion on exposure to water,"[2]; exposure to water, including atmospheric humidity",may be converted to Form I
"N#Cc1c[nH]c2c(C(=O)N3CCN(CCc4ccc(F)cc4)CC3)cccc12.O=P(O)(O)O [Form I, (3-cyano-1H-indol-7-yl)-[4-(4-fluorophenethyl)piperazin-1-yl]methanone phosphate hydrate Form I]",crystal form conversion on dehydration,[2]; dehydrating the solid at 0% RH and ambient temperature,may be converted to the Anhydrate
same,water retained within the crystalline lattice,[3],about 1.2 % by weight of compound
same,water retained within the crystalline lattice (molar),[3],⅓

# From patent publication US8188087B2, “Crystalline (3-cyano-1H-indol-7-yl)-[4-(4-fluorophenethyl) piperazin-1-yl]methanone phosphate” (Merck Patent GmbH, priority 2006, dated 2012)
